In one series the test system is arthritis pain. To be noted: cited from earlier work.
Another series has as its system patients. To be noted: Zometa Prescribing Information; cited from earlier work.
Series [1] has as its system subjects with osteoarthritis. Briefly: Joint pain (VAS scale) in the osteoarthritis subjects of the first study. Format: in vivo, human. As to conditions: six months after the single infusion (one ZP subject up to one year); three ZP, two Zoledronic Acid subjects with osteoarthritis.
Experimental: Of the 8 subjects, five had osteoarthritis. Of these five, three were treated with ZP and two with Zoledronic Acid.
Series [2] deals with subjects with knee osteoarthritis. The series is described as follows: Single blind, single center study of intravenous ZP or ZA in knee osteoarthritis. It counts as in vivo, human. As to the method:
In a further study, this one, a single blind, single center study, 20 subjects with knee osteoarthritis were randomized to either intravenous ZP or ZA in a 1:1 ratio. Subjects were followed for six months. Efficacy was measured by change in pain in 100 mm visual analogue score (VAS) from baseline (mean values). Patients were asked about the level of pain without taking rescue medications (NSAIDS or tramadol). Bone mineral density (BMD) was determined at baseline and six months to detect any effect on bone.

For series [3] the following is noted: in vivo; cited from earlier work.
Series [4] concerns patients with osteoporosis. Briefly: Zoledronic Acid alone or with prednisone (ZP), single infusion in osteoporosis patients: post-dosing syndrome. Format: in vivo, human. To be noted: four patients per arm. On the procedure:
Eight patients with osteoporosis were treated with a single infusion of Zoledronic Acid alone (four patients) or with a single infusion of the combination of prednisone and Zoledronic Acid (ZP, four patients).

On to `C[C@]12C=CC(=O)C=C1CC[C@@H]1[C@@H]2[C@@H](O)C[C@@]2(C)[C@H]1CC[C@]2(O)C(=O)CO` [Prednisolone], for which the “effect on arthritis pain” value in the series on arthritis pain (IV, by itself) was “no effect on arthritis pain”. For the same compound, in the series with arthritis pain (in vivo), the duration of effect result is “transient, less than a day”.
On to `O=P(O)(O)C(O)(Cn1ccnc1)P(=O)(O)O` [Zoledronic Acid], for which, in the series on patients, the “patients affected by post-dosing syndrome (PDS)” value is listed as not above 44%. Further, in series [1], the “change in joint pain (VAS scale)” value is listed as “same (one) or worse (one) level of pain”. Besides, the ΔBMD in series [2] (bone mineral density, baseline versus six months) was 0. Besides, the “Δ Mean VAS” value in series [2] (change in pain in 100 mm visual analogue score from baseline (mean values), six months follow-up, without rescue medications) was −10 mm. Besides, the “PDS (# reporting/total)” value in series [2] (intravenous, 10 subjects per cohort, knee osteoarthritis) was 6/10. Moreover, the “half-life (t1/2α)” value in series [3] is given as “about 0.24 hours”. The “patients suffering from post-dosing syndrome (PDS)” value in series [4] is “All four”.
